Experimental data taken from patent publication US7097866B2, “Composition and method to whiten and exfoliate skin” (Desert Whale Jojoba Company, priority 2002, dated 2006).

System: mouse B16F10 melanoma cells
Experiment: melanin content and cell pellet color of mouse B16F10 melanoma cells cultured 6 days
Assay type: cell-based
Design: key to Vidjual color determination of cell pellet (score 5 black to 1 white, 0 not detectable): A Vidjual score of 5 means the cell pellet was black; A Vidjual score of 1 means the cell pellet was white; A Vidjual score of 0 means the cell pellet was not detectable, i.e. it has no color at all
Conditions: Sodium lactate positive control; for Vidjual color determination of cell pellet (score 5 black to 1 white, 0 not detectable): 25 mM or 50 mM level; for total melanin content per microgram of protein: added at either 25 mM or 50 mM level

CC(O)C(=O)[O-].[Na+] (stereo not shown) [Positive Control, Sodium lactate]
Vidjual color determination of cell pellet (score 5 black to 1 white, 0 not detectable) (table row 0.5 v/v %): 3
total melanin content per microgram of protein (table row 0.5 v/v %): 0.240 micrograms per microgram of pr
Vidjual color determination of cell pellet (score 5 black to 1 white, 0 not detectable) (table row 1.0 v/v %): 1
total melanin content per microgram of protein (table row 1.0 v/v %): 0.107 micrograms per microgram of pr
